Key:
[1] = target: cloned human P2Y1 receptors (Homo sapiens (Human), UniProt P47900); assay: Binding Assay B - Scintillation Proximity Assay (SPA) for P2Y1 binding, [33P] 2MeS-ADP; details: SPA, 0.3 nM [33P] 2MeS-ADP, Cheng-Prusoff; read-out: P2Y1 Ki (nM) using binding assay B
Protocol: Binding Assay B—Scintillation Proximity Assay (SPA) for P2Y1 Binding
A SPA membrane binding assay was used to identify inhibitors of [^33P] […] Reactions were allowed to proceed to completion at room temperature for 1 hour followed by centrifugation of the plate for 5 min. About 40 μL of the aqueous solution was aspirated. Plates were sealed and the [^33P]

[2] = tested on: human platelet rich plasma (PRP); assay: ADP induced platelet aggregation assay; details: Homo sapiens, Platelet, 5 min, read-out: PA IC50 (μM) @ 10 μM ADP, human PRP, 10 μM ADP, AUC at 5 minute

Chain of cloned human P2Y1 receptors (P47900 whole entry): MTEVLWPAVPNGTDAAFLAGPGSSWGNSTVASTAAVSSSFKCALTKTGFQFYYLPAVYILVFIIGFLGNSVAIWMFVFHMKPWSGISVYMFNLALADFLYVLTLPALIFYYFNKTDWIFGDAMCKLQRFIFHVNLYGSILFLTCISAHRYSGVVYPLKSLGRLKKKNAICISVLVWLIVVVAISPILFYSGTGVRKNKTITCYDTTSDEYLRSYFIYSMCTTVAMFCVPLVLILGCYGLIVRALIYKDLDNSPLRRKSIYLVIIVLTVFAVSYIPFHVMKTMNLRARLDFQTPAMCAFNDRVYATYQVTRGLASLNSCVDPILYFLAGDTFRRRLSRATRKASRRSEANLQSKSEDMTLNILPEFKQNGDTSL

Structure (SMILES)	Ki [1]	IC50 [2]
CC1(C)CN(c2ccccc2NC(=O)Nc2csc(Cl)n2)c2c(O)cc(F)c(Br)c21 [Example 68, 1-(2-(4-Bromo-5-fluoro-7-hydroxy-3,3-dimethylindolin-1-yl)phenyl)-3-(2-chlorothiazol-4-yl)urea]	7.5 nM	0.6 µM
CC1(C)CN(c2ccccc2NC(=O)Nc2ccc(OC(F)(F)F)cc2)c2c(O)c(F)cc(Br)c21 [Example 69, 1-(2-(4-Bromo-6-fluoro-7-hydroxy-3,3-dimethylindolin-1-yl)phenyl)-3-(4-(trifluoromethoxy)phenyl)urea]	18.1 nM	0.83 µM
CC1(C)CN(c2ccccc2NC(=O)Nc2nc3ccc(Cl)cc3s2)c2c(O)cc(F)c(Br)c21 [Example 70, 1-(2-(4-Bromo-5-fluoro-7-hydroxy-3,3-dimethylindolin-1-yl)phenyl)-3-(6-chlorobenzo[d]thiazol-2-yl)urea]	31.3 nM	0.78 µM
CCC1(CC)CN(c2ccccc2NC(=O)Nc2ccc(OC(F)(F)F)cc2)c2c(O)ccc(C)c21 [Example 71, 1-(2-(3,3-Diethyl-7-hydroxy-4-methylindolin-1-yl)phenyl)-3-(4-(trifluoromethoxy)phenyl)urea]	6.8 nM	0.5 µM
CC(C)(C)Sc1ccc(O)c2c1C(C)(C)CN2c1ccccc1NC(=O)Nc1ccc(OC(F)(F)F)cc1 [Example 72, 1-(2-(4-(tert-Butylthio)-7-hydroxy-3,3-dimethylindolin-1-yl)phenyl)-3-(4-(trifluoromethoxy)phenyl)urea]	32.2 nM	1.05 µM
CCC1(CC)CN(c2ccccc2NC(=O)Nc2ccc(OC(F)(F)F)cc2)c2c(O)ccc(C=O)c21 [Example 73, 1-(2-(3,3-Diethyl-4-formyl-7-hydroxyindolin-1-yl)phenyl)-3-(4-(trifluoromethoxy)phenyl)urea]	4.5 nM	0.9 µM
CCOC(=O)C1(C)CN(c2ccccc2NC(=O)Nc2ccc(OC(F)(F)F)cc2)c2c(O)ccc(Cl)c21 (stereo not drawn) [Example 74, Ethyl 4-chloro-7-hydroxy-3-methyl-1-(2-(3-(4-(trifluoromethoxy)phenyl)ureido)phenyl)indoline-3-carboxylate]	19.8 nM	3.11 µM
CCOC(=O)C1(C)CN(c2ccccc2NC(=O)Nc2csc(Cl)n2)c2c(O)ccc(Cl)c21 (stereo not drawn) [Example 75, Ethyl 4-chloro-1-(2-(3-(2-chlorothiazol-4-yl)ureido)phenyl)-7-hydroxy-3-methylindoline-3-carboxylate]	7.1 nM	0.56 µM
CCOC(=O)C1(C)CN(c2ccccc2NC(=O)Nc2nc3ccc(F)cc3s2)c2c(O)ccc(Cl)c21 (stereo not drawn) [Example 76, Ethyl 4-chloro-1-(2-(3-(6-fluorobenzo[d]thiazol-2-yl)ureido)phenyl)-7-hydroxy-3-methylindoline-3-carboxylate]	11.5 nM	0.4 µM
CCOC(=O)C1(C)CN(c2ccccc2NC(=O)Nc2nc3ccc(Cl)nc3s2)c2c(O)ccc(Cl)c21 (stereo not drawn) [Example 77, Ethyl 4-chloro-1-(2-(3-(5-chlorothiazolo[5,4-b]pyridin-2-yl)ureido)phenyl)-7-hydroxy-3-methylindoline-3-carboxylate]	12.9 nM	0.61 µM
CC1(CC(F)(F)F)CN(c2ccccc2NC(=O)Nc2ccc(OC(F)(F)F)cc2)c2c(O)ccc(Cl)c21 (stereo not drawn) [Example 78, 1-(2-(4-Chloro-7-hydroxy-3-methyl-3-(2,2,2-trifluoroethyl)indolin-1-yl)phenyl)-3-(4-(trifluoromethoxy)phenyl)urea]	7.7 nM	2.92 µM
CC1(C)CN(c2ccccc2NC(=O)Nc2ccc(OC(F)(F)F)cc2)c2c(O)c(F)cc(CC(F)(F)F)c21 [Example 79, 1-(2-(6-Fluoro-7-hydroxy-3,3-dimethyl-4-(2,2,2-trifluoroethyl)indolin-1-yl)phenyl)-3-(4-(trifluoromethoxy)phenyl)urea]	9.7 nM	0.83 µM

— US9540323B2 (BRISTOL-MYERS SQUIBB COMPANY, priority 2012, dated 2017)
